Measurements: US11702546B2, “Near-infrared heptamethine dyes for generation of singlet oxygen” (California Institute of Technology, priority 2018, dated 2023)
“Also recorded” adds a separate entry of the source.

Columns and labels:
NIR absorbance spectrum = assay type: physicochemical; design: dose or concentration left out as unconfirmed; conditions: CDCl3
Method: (§1) IR-1061 tetrafluoroborate and dry pyridine were purchased from commercial sources and used as supplied. Deuterated chloroform was purchased from commercial sources and filtered through a neutral alumina plug prior to use to neutralize and dry the solvent. Irradiations at 980 nm were performed using a 1 watt/cm^2 infrared diode laser at 980 nm coupled to a PSU-III-FDA power supply. Irradiations at 1064 nm were performed using an Nd:YAG laser at 1.8 W/cm^2. Absorbance spectra were obtained using an Agilent CARY 60 UV-Vis for spectra below 1000 nm, and a Cary 5000 UV-VIS-NIR for spectra above 1000 nm. Mass spectrometry characterization was performed via MALDI using a BRUKER MALDI/TOF Autoflex Speed and a Waters LCT Premier XE Electrospray TOF. 1H NMR spectra were obtained using a Varian 600 MHz Spectrometer.

[1] = Comparative quantum yield experiments (DPBF bleaching vs phenalenone); assay type: physicochemical; conditions: chloroform; for relative quantum yield of singlet oxygen generation: 1064 nm, relative to phenalenone, corrected for photon flux; for percent decrease in DPBF signal at 415 nm: 30 seconds
Source text: Phenalenone, a highly efficient singlet oxygen generator with a known singlet oxygen quantum yield of 0.97 in chloroform was used to benchmark the efficiency of IR-1061-acridinium singlet oxygen generation in chloroform. A solution of phenalenone at an absorbance of 0.30 at 365 nm was generated that also contained DPBF at an absorbance of approximately 1.0. This solution was irradiated for 30 seconds using a 365 nm variable power LED (3-300 mW, Thor labs) at 30 mW/cm^2. The percent decrease in DPBF signal at 415 nm was calculated, taking into account any background from phenalenone. This was done in triplicate. A similar experiment was then run using IR-1061-acridinium. A solution containing the dye at an absorbance of 0.30 at 1064 and DPBF at an absorbance of approximately 1.0 was irradiated for 30 seconds using a 1064 nm Nd:YAG laser with a power output of 1.8 W/cm^2. The percent decrease in DPBF signal at 415 nm was then calculated, taking into account any background from IR-1061-acridinium. This was also done in triplicate.
The percent decrease attributed to phenalenone was calculated to be 0.53 and the percent decrease attributed to IR-1061-acridinium was calculated to be 0.29. To account for the difference in photon flux at these two wavelengths, the ratio of the photon flux was calculated, where the photon flux was described by the following equation: PF=I*λ/(h*c*Na). PF stands for photon flux, I is the irradiation intensity, λ is the irradiation wavelength, his Planck's constant, c is the speed of light and Na is Avogadro's number. The ratio of the photon flux was simplified to PFR=(IPhe*λPhe)/(IIR*λIr)=(0.03 W/cm^2*365 nm)/(1.8 W/cm^2*1064 nm)=0.006. Considering this difference in photon flux and phenalenone's known quantum yield of singlet oxygen generation of 0.97, this yielded a relative quantum yield of about 0.003, or 0.3%.

[2] = Irradiation experiments with singlet oxygen trap DPBF (NIR laser, absorbance readout vs dark control); assay type: physicochemical; conditions: for change in DPBF signal after irradiation: 980 nm laser, 1 W cm-2, CDCl3, 30 minutes, relative to dark control
Method: as §1
Dye was dissolved in deuterated solvent at a concentration that would produce an absorbance near 1 at 980 nm. This was calculated using extinction coefficients determined by absorbance measurements of the dye alone. The IR-1061-acridinium irradiation in water was an exception, as the concentration was kept lower to ensure solubility. Dye solution was split into two aliquots and added to two 1 cm by 1 cm quartz cuvettes purchased from Starna. The absorption spectra were taken for both cuvettes (to ensure the pre-irradiation sample looked the same in both cases), and subsequently one cuvette was irradiated while the other was kept in the dark. A stir bar was used to ensure proper mixing during irradiation. After irradiation, the absorbance of both solutions was again evaluated. […] For the 1064 nm irradiation, the dye was dissolved at a slightly higher concentration to an absorbance of approximately 1.5 at 1064 nm and irradiated for 5 minutes. At this point significant photobleaching of the dye was observed, so additional irradiation was not performed.
The freeze-pump-thaw (FPT) experiment was carried out as follows. Dye was dissolved in deuterated chloroform and added to a FPT that apparatus. Three consecutive freeze-pump-thaw cycles were carried out to a pressure of less than […], at which point the solution was transferred under vacuum to the arm of the apparatus containing a fused 1 cm by 1 cm quartz cuvette (Starna). Irradiation and subsequent absorption measurements were carried out in the sealed cuvette.
The pyridine addition reaction was extremely sensitive to water, but gave good conversion using dry pyridine. […] Despite this inconvenience, the slightly impure dye was used as a proof of principle. For initial singlet oxygen generation experiments, the dye was dissolved in CDCl3—the solvent in which it had the highest solubility—and irradiated using a 1 Wcm^−2 980 nm laser in the presence of a singlet oxygen trap, diphenylisobenzofuran (DPBF). DPBF was selected as a trap because it is a standard in the field and because other popular detectors (such as singlet oxygen sensor green, SOSG) led to precipitation of IR-1061-pyridinium over time.

[3] = Stability and solubility observations of the dye; assay type: physicochemical
[4] = in chloroform, irradiation at 365 nm; cited from earlier work
[5] = 980 nm, D2O with DMSO-D6 for solubility
[6] = 1064 nm laser, 1.8 W cm-2, CDCl3, 5 minutes

Structure (SMILES): C(/C=C1\CCCC(/C=C/c2cc(-c3ccccc3)[s+]c(-c3ccccc3)c2)=C1[n+]1c2ccccc2cc2ccccc21)=C1C=C(c2ccccc2)SC(c2ccccc2)=C1 [IR-1061-acridinium]
- λmax of NIR absorbance (NIR absorbance spectrum): 1078
- relative quantum yield of singlet oxygen generation [1]: about 0.003
- relative quantum yield of singlet oxygen generation ([1]; approximate): ~0.3%
- percent decrease in DPBF signal at 415 nm ([1]; 1064 nm Nd:YAG laser at 1.8 W/cm2, absorbance 0.30 at 1064, triplicate): 0.29
- change in DPBF signal after irradiation [2]: significant DPBF photobleaching was observed only after 30 minutes
- DPBF degradation rate in water [2, 5]: comparable to those seen in chloroform
- photobleaching of the dye in water [2, 5]: high levels of photobleaching
- singlet oxygen generation in nonpolar solvents ([2]; 980 nm, deuterated nonpolar solvents such as toluene): no singlet oxygen generation was observed
- DPBF degradation in polar aprotic solvents ([2]; 980 nm, deuterated polar aprotic solvents such as DMSO): decreased DPBF degradation
- change in DPBF signal, freeze-pump-thawed sample devoid of oxygen ([2]; 980 nm, freeze-pump-thawed CDCl3): no change in DPBF signal
- DPBF photobleaching after irradiation [2, 6]: near complete photobleaching of DPBF; also recorded: Rapid bleaching of both the dye and DPBF signal
- bleaching of the dye during irradiation [2, 6]: significant bleaching of the dye
- effect of introduction of protein (BSA) ([3]; BSA added): precipitation of the dye

Structure (SMILES): C(/C=C1\CCCC(/C=C/c2cc(-c3ccccc3)[s+]c(-c3ccccc3)c2)=C1[n+]1c2ccccc2cc2ccccc21)=C1C=C(c2ccccc2)SC(c2ccccc2)=C1 [IR-1061-acridinium BArF]
- photosensitization capability after counterion exchange BF4- to BArF- ([2]; 980 nm, CDCl3, compared with tetrafluoroborate salt): marked decrease in photosensitization capability; also recorded: Reactivity was significantly reduced
- solubility after counterion exchange BF4- to BArF- ([3]; compared with BF4- salt): increase in solubility

Structure (SMILES): C(/C=C1\CCCC(/C=C/c2cc(-c3ccccc3)[s+]c(-c3ccccc3)c2)=C1[n+]1ccccc1)=C1C=C(c2ccccc2)SC(c2ccccc2)=C1 [IR-1061-pyridinium]
- change in DPBF signal after irradiation [2]: significant decrease in the DPBF signal
- stability to hydration during purification ([3]; all evaluated purification conditions): too sensitive to isolate in pure form due to hydration

Structure (SMILES): O=C1C=Cc2cccc3cccc1c23 [phenalenone, reference compound]
- percent decrease in DPBF signal at 415 nm ([1]; 365 nm LED at 30 mW/cm2, absorbance 0.30 at 365 nm, triplicate): 0.53
- known singlet oxygen quantum yield [4]: 0.97

Structure (SMILES): ClC1=C(/C=C/c2cc(-c3ccccc3)[s+]c(-c3ccccc3)c2)CCC/C1=C\C=C1C=C(c2ccccc2)SC(c2ccccc2)=C1 [IR-1061, reference compound]
- change in DPBF signal after irradiation [2]: no significant changes in DPBF signal
